Reference: publication PMC8512562, “Semisynthetic Derivatives of Selected Amaryllidaceae Alkaloids as a New Class of Antimycobacterial Agents” (Molecules, 2021)
In brackets after ≈: the same amount, converted by molar mass. Like-named read-outs stand apart in the source and are kept apart here.

Tests used:
[1] = test system: M. tuberculosis H37Ra, M. aurum and M. smegmatis; assay: Antimycobacterial screening, MICs stated over all studied strains; type: cell-based, Mycobacterium; conditions: read-out: MICs against all studied strains
HepG2 cells = assay: cells; type: cell-based, Human; conditions: for IC50: Homo sapiens, HepG2, MTT, 24 h incubation
[2] = test system: Mycobacterium smegmatis DSM 43465 (ATCC 607); assay: Antimycobacterial screening (microdilution broth, resazurin) against M. smegmatis; type: cell-based; conditions: Mycolicibacterium smegmatis, 48 h, read-out: MIC M. smegmatis
[3] = test system: Mycobacterium aurum DSM 43999 (ATCC 23366); assay: Antimycobacterial screening (microdilution broth, resazurin) against M. aurum; type: cell-based; conditions: Mycolicibacterium aurum, 72 h, read-out: MIC M. aurum
[4] = test system: Mycobacterium tuberculosis H37Ra; assay: Antimycobacterial screening (microdilution broth, resazurin) against M. tuberculosis H37Ra; type: cell-based; conditions: Mycobacterium tuberculosis
[5] = range over M. tuberculosis H37Ra, M. aurum, M. smegmatis
[6] = H37RA, read-out: MIC Mtb H37Ra (µM)
[7] = M. tuberculosis H37Ra, resazurin added after 120 h, read-out: MIC Mtb H37Ra

| SMILES | MIC [1, 5] | SI (selectivity index) (HepG2 cells) | IC50 (HepG2 cells) | MIC [2] | MIC [3] | MIC [4, 6] | MIC [4, 7] | MIC ([1]; range over the studied strains) |
| --- | --- | --- | --- | --- | --- | --- | --- | --- |
| COc1cc2c(cc1OC)[C@@]13C=C[C@@H](OC(=O)c4cccc5ccccc45)C[C@@H]1N(CC3)C2 [5b, 3-O-(1-naphthoyl)maritidine] | 3.91 to 15.6 µg/mL | 1.03 | 16.8 ± 7.1 µM | 15.6 µg/mL (≈ 35.4 µM) | 7.81 µg/mL (≈ 17.7 µM) | 16.3 µM | 7.81 µg/mL |  |
| O=C(O[C@@H]1C=C[C@]23CCN(Cc4cc5c(cc42)OCO5)[C@H]3C1)c1cccc2ccccc12 [4a, 3-O-(1-naphthoyl)vittatine] | 3.91 to 7.81 µg/mL | 2.79 | 23.7 ± 2.2 µM | 7.81 µg/mL (≈ 18.4 µM) | 3.91 µg/mL (≈ 9.19 µM) | 8.5 µM | 3.91 µg/mL |  |
| O=C(O[C@@H]1C=C[C@]23CCN(Cc4cc5c(cc42)OCO5)[C@H]3C1)c1ccc2ccccc2c1 [4b, 3-O-(2-naphthoyl)vittatine] | 3.91 to 7.81 µg/mL | 2.17 | 18.5 ± 2 µM | 7.81 µg/mL (≈ 18.4 µM) | 3.91 µg/mL (≈ 9.19 µM) | 8.5 µM | 3.91 µg/mL |  |
| COc1ccc2c3c1O[C@H]1C[C@@H](OC(=O)c4ccc(C(C)(C)C)cc4)C=C[C@@]31CCN(C)C2 [1h, 6-O-(4-tert-butylbenzoyl)galanthamine] | 3.12 to 7.81 µg/mL | 2.43 | 16.8 ± 4.2 µM | 7.81 µg/mL (≈ 17.4 µM) | 7.81 µg/mL (≈ 17.4 µM) | 6.9 µM | 3.12 µg/mL |  |
| COc1ccc2c3c1O[C@H]1C[C@@H](OC(=O)c4cccc5ccccc45)C=C[C@@]31CCN(C)C2 [1q, 6-O-(1-naphthoyl)galanthamine] | 6.25 to 7.81 µg/mL | 3.21 | 42.1 ± 4.1 µM | 7.81 µg/mL (≈ 17.7 µM) | 7.81 µg/mL (≈ 17.7 µM) | 13.1 µM | 6.25 µg/mL |  |
| CCOc1cc(OCC)cc(C(=O)O[C@H]2C=C[C@@]34CCN(C)Cc5ccc(OC)c(c53)O[C@H]4C2)c1 [1p, 6-O-(3,5-diethoxybenzoyl)galanthamine] | 3.91 to 15.6 µg/mL | 2.64 | 20.1 ± 2.1 µM | 15.6 µg/mL (≈ 32.6 µM) | 7.81 µg/mL (≈ 16.3 µM) | 7.6 µM | 3.91 µg/mL | 7.6 to 30.2 µM |
| COc1cc2c(cc1OC)[C@@]13C=C[C@@H](OC(=O)c4cc(C)cc(C)c4)C[C@@H]1N(CC3)C2 [5a, 3-O-(3,5-dimethylbenzoyl)maritidine] | 3.91 to 15.6 µg/mL | 2.17 | 18.7 ± 2.7 µM | 15.6 µg/mL (≈ 37.2 µM) | 15.6 µg/mL (≈ 37.2 µM) | 8.6 µM | 3.91 µg/mL |  |
| COC1CC2C(=CC1OC(=O)c1cccc3ccccc13)C1CN2Cc2cc3c(cc21)OCO3 (stereo not drawn) [3f, 2-O-(1-naphthoyl)-3-O-methylpancracine] | 3.91 µg/mL | 3.51 | 27.7 ± 4.7 µM | 3.91 µg/mL (≈ 8.58 µM) | 3.91 µg/mL (≈ 8.58 µM) | 7.9 µM | 3.91 µg/mL |  |
